# In patent US20090196833A1, “COMPOSITIONS COMPRISING TOPICAL DPD INHIBITORS AND METHODS OF USING SAME IN THE TREATMENT OF HAND-FOOT SYNDROME” (ADHEREX TECHNOLOGIES INC., priority 2008, published 2009):
# Read-outs that look alike come from different tables or passages of the source.
# Columns and labels:
# [1] = 5-FU pharmacokinetics in pigs with topical eniluracil (Example 6); type: in vivo; conditions: pig, plasma, 6 mg/kg, 5-FU 6 mg/kg bolus, read-out: 5-FU Half-Life, Mean (SD)
# Method: (§1) This study was carried out to determine the plasma pharmacokinetics of eniluracil (EU) after topical administration and to evaluate the effect of topical eniluracil application on 5-FU pharmacokinetics, peripheral blood mononuclear cell (PBMC) dihydropyrimidine dehydrogenase (DPD) function, and levels of DPD activity in the skin in vivo. Eniluracil (0.005% and 0.01% w/w) formulated using Aquaphor® was applied topically (617 mg to a designated area) for 5 minutes every other day for 16 days starting on Day-2. 5-Fluorouracil was administered as a 6 mg/kg bolus injection on Day-3, Day 0 and Day 14. Samples were collected at predetermined time intervals to evaluate 5-fluorouracil pharmacokinetics, eniluracil pharmacokinetics, skin DPD activity and systemic DPD activity.
# (§2) A baseline 5-FU pharmacokinetic study was conducted on Day-3 by collecting serial blood samples after 5-FU administration. […] The total ointment applied was […]. The area of application in the pig ([…]=0.0040 m^2) was selected based on feasibility and scale to the proposed human use using the following figures: the surface area of one palm and one sole combined in a human is 2% of the total body surface area, the average total body surface area in a pig is 0.40 m^2. Thus, in terms of total eniluracil in mg/m^2 applied to pigs was 0.154 for 0.01% and 0.077 for 0.005%. The duration of application was 5 minutes, which was determined based data obtained from a pilot study. In this study, higher doses of topical eniluracil (5 gms of 0.01%, 0.05% and 0.01% w/w) and placebo were applied on the skin and skin biopsies were collected after predefined time intervals. These samples were then analyzed for DPD activity.
# (§3) Ointment exposure time was 5 minutes every other day for 16 days. Eniluracil treated animals also received 617 mg of placebo at a site different from the treatment site. Eniluracil pharmacokinetics were analyzed from the serial blood samples drawn on first day of the 5-FU and eniluracil treatment (Day 0) and on Day 14. In addition, eniluracil concentrations were evaluated in all samples obtained for 5-FU pharmacokinetics, as shown above. 5-FU pharmacokinetics were evaluated from 11 serial blood samples drawn after the IV bolus administration of 5-FU on Day-3, Day 0 and Day 14. On 5-FU treatment days, eniluracil administration was conducted first (5 min) followed by 5-FU at the 6 minute time point. Blood samples were collected for plasma EU analyses prior to topical administration and at 2 min and 5 min (end of topical exposure). Blood samples were collected for both EU and 5-FU analyses immediately prior to 5-FU administration and at the following times from the IV bolus: 2, 5, 10, 15, 30, 45, 60, 90 120, and 180 min. Determinations of eniluracil and 5-fluorouracil plasma pharmacokinetics were made. The effect on the local DPD activity and the effect of topical eniluracil on systemic DPD activity were assessed by collecting skin biopsies from both the treatment site and the placebo site, and peripheral blood mononuclear cells (PBMCs) on day-2 and on day 12. DPD activity in PBMCs was also measured on Day 17 and Day 19, to investigate the time to recovery if there was any systemic inhibition of DPD.
# In terms of statistical considerations, the study was designed with 4 pigs to a treatment group in order to have 80% power for observation of at least a 40% difference in 5-FU systemic exposure between measurements conducted on day-3 (no eniluracil) to day 14 (on eniluracil every other day since day-2) at each of the two dosing levels (4 animals per dose level). These evaluations were conducted using matched, paired T Tests and Wilcoxon tests. In addition, day 14 data were compared between the treatment vs. control groups using the Kiruskal-Wallis test. […]
# [2] = tested on: EpiDerm™ skin model (normal, human-derived epidermal keratinocytes (NHEK)); assay: EpiDerm skin model MTT conversion assay (ET50, dermal irritation); type: cell-based; conditions: for ET50: exposure times 8, 20, 24 hours
# Excerpt: The EpiDerm™ skin model system (MatTek) was used to assess the potential dermal irritation of eniluracil alone or its formulation. This system consists of normal, human-derived epidermal keratinocytes (NHEK) which have been cultured to form a multilayered, highly differentiated model of the human epidermis. […] The EpiDerm™ system is mitotically and metabolically active. Markers of mature epidermis-specific differentiation such as pro-filaggrin, the K1/K10 cytokeratin pair, involucrin, and type I epidermal transglutaminase have been localized in the model. […] Eniluracil was prepared and administered to the test system at the three final concentrations of 1000 μM, 500 μM, and 100 μM, and tested at three exposure times of 8, 20, and 24 hours. The DMSO solvent control was tested at exposure times of 8 and 24 hours. The negative control was tested at exposure times of 4 and 24 hours, and the positive control was tested at exposure times of 4 and 8 hours. […] Hydrochloric acid in an amount equivalent to the sodium hydroxide was added to neutralize the ointment. The exposure time control was also exposed in duplicate for 4 and 24 hours. Table 2 below summarizes the ET50 results of the EpiDerm™ assay for the test articles and the positive control, using the negative control results to determine the relative viability.
# [3] = pH of test article in the EpiDerm studies; type: physicochemical
# [4] = Plasma eniluracil after topical administration in pigs (Example 6); type: in vivo
# Method: as §1, §2
# as §3, with “On 5-FU treatment days, eniluracil administration was conducted first (5 min) followed by 5-FU at the 6 minute time point. Blood samples were collected for plasma EU analyses prior to topical administration and at 2 min and 5 min (end of topical exposure). Blood samples were collected for both EU and 5-FU analyses immediately prior to 5-FU administration and at the following times from the IV bolus: 2, 5, 10, 15, 30, 45, 60, 90 120, and 180 min. Determinations of eniluracil and 5-fluorouracil plasma pharmacokinetics were made.” left out
# [5] = biological target: T1, dihydropyrimidine dehydrogenase (DPD) (Sus scrofa, UniProt Q28943); assay: Skin DPD activity in pigs with topical eniluracil (Example 6); type: in vivo; conditions: short term topical application at 0.005% or 0.01% w/w
# T1 construct: the supernatant (cytosolic fraction) was collected for use as the enzyme source; from tissue; host or cells: pig skin biopsies after topical dosing in vivo
# T1 sequence (Q28943 4-1025): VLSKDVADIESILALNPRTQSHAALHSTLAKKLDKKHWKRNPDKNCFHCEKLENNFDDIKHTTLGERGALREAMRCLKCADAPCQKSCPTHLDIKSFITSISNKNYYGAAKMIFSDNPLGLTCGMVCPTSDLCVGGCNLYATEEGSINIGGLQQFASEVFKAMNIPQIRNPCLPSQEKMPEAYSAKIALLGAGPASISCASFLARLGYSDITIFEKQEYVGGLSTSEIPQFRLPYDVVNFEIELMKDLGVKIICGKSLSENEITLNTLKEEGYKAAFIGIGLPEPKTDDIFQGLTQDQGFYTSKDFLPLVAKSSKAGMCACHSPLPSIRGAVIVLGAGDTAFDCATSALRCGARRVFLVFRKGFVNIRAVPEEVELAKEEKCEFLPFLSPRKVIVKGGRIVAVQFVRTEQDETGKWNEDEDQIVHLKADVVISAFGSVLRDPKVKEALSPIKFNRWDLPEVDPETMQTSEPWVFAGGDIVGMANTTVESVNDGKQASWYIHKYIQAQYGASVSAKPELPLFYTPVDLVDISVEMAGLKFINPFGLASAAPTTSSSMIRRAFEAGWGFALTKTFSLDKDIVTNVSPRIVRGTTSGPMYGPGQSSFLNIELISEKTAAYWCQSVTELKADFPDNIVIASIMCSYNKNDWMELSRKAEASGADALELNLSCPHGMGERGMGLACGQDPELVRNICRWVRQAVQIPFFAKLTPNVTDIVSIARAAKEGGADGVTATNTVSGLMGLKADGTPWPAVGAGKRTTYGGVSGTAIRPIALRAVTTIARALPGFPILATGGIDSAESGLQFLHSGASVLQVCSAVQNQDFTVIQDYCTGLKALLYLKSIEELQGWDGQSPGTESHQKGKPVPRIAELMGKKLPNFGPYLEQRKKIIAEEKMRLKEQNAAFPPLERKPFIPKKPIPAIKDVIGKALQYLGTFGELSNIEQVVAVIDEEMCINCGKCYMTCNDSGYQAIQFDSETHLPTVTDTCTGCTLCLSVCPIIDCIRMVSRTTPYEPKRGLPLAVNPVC
# Method: as §1, with “Samples were collected at predetermined time intervals to evaluate 5-fluorouracil pharmacokinetics, eniluracil pharmacokinetics, skin DPD activity and systemic DPD activity.” left out
# A baseline 5-FU pharmacokinetic study was conducted on Day-3 by collecting serial blood samples after 5-FU administration. […] The duration of application was 5 minutes, which was determined based data obtained from a pilot study. […] These samples were then analyzed for DPD activity.
# Ointment exposure time was 5 minutes every other day for 16 days. […] Eniluracil pharmacokinetics were analyzed from the serial blood samples drawn on first day of the 5-FU and eniluracil treatment (Day 0) and on Day 14. In addition, eniluracil concentrations were evaluated in all samples obtained for 5-FU pharmacokinetics, as shown above. 5-FU pharmacokinetics were evaluated from 11 serial blood samples drawn after the IV bolus administration of 5-FU on Day-3, Day 0 and Day 14. […]
# [6] = capecitabine at labeled dose; cited from earlier work
# [7] = tested on: Thymidine phosphorylase (TP); assay: Thymidine phosphorylase (TP) enzyme activity in skin sample supernatant; conditions: concentration of 100 uM; 200 μM capecitabine substrate
# Method: Skin samples were suspended in 600 μl of homogenization buffer containing 20 mM potassium phosphate (pH 8.0), 1.5 mM dithiothreitol (DTT), and 5 ul/ml protease inhibitor (Sigma). Samples were homogenized and centrifuged at 36,000 rpm for one hour at 4° C. The supernatants were collected and protein concentration was measured using the Bradford assay (Biorad). Thymidine phosporylase (TP) enzyme activity was determined in an assay mixture containing 20 mM potassium phosphate (pH 8.0), 1 mM DTT, 1 mM EDTA, 2 μM 6-^3H-Capecitabine (Moravek Biochemicals, Brea, Calif.), 200 μM unlabeled Capecitabine, varying concentrations of the inhibitor (100 μM, 10 μM, or 1 μM), and 80 μl of protein (6.0 mg/ml) in a final volume of 160 μl. Reactions were incubated at 37° C. for 30 minutes and then terminated by boiling for four minutes. To facilitate protein precipitation, the reactions were incubated at −80° C. for at least 20 minutes, thawed, and then centrifuged for 10 minutes at 14000 rpm at 4° C. The resulting supernatants were filtered through a 0.2 μm Acrodisc filter (VWR International, West Chester, Pa.) and samples were injected in duplicate (60 μl each) onto a HPLC (Hewlett-Packard 1050, Houston, Tex.) equipped with an automatic injector and on-line radioisotope flow detector (Radiomatic FLO-ONE Beta, Packard Instrument, Meriden, Conn.). […]
smiles,measurement,setting,value
"O=c1[nH]cc(F)c(=O)[nH]1 [5-FU, 5-Fluorouracil]",half-life,"[1]; iv, Both Doses of eniluracil ointment, Day 0",10.1 min
same,half-life,"[1]; iv, Both Doses of eniluracil ointment, Day 14",9.77 min
same,half-life,"[1]; iv, Controls (no ointment), Day 0",7.56 min
same,half-life,"[1]; iv, Controls (no ointment), Day 14",9.74 min
same,half-life,"[1]; iv, Controls (no ointment), Day −3",5.51 min
same,half-life,"[1]; iv, eniluracil ointment Dose 0.005%, Day 0",6.98 min
same,half-life,"[1]; iv, eniluracil ointment Dose 0.005%, Day 14",6.7 min
same,half-life,"[1]; iv, eniluracil ointment Dose 0.01%, Day 0",13.2 min
same,half-life,"[1]; iv, eniluracil ointment Dose 0.01%, Day 14",12.8 min
same,half-life,"[1]; topical or ocular, Both Doses of eniluracil ointment, Day −3 (no topical eniluracil)",5.11 min
same,half-life,"[1]; topical or ocular, eniluracil ointment Dose 0.005% group, Day −3 (no topical eniluracil)",5.44 min
same,half-life,"[1]; topical or ocular, eniluracil ointment Dose 0.01% group, Day −3 (no topical eniluracil)",4.78 min
"C#Cc1c[nH]c(=O)[nH]c1=O [Eniluracil, eniluracil]",tolerability in EpiDerm skin model,"[2]; 1000, 500 and 100 μM, topical exposures of up to 24 hours",well-tolerated
same,ET50,[2]; eniluracil 100 uM,>24 h
same,ET50,[2]; eniluracil 500 uM,>24 h
same,ET50,[2]; eniluracil 1000 uM,>24 h
same,pH,[3]; eniluracil 100 uM,5
same,pH,[3]; eniluracil 500 uM,5
same,pH,[3]; eniluracil 1000 uM,5
same,plasma EU concentration,"[4]; 221 of the 224 samples, limit of quantitation, topical 0.005% or 0.01% w/w, 5 minutes every other day",≤ 11 ng/mL
same,plasma EU concentration,"[4]; pig 5303, EU dose 0.005%, day 14, 6 min",12.81 ng/mL
same,plasma EU concentration,"[4]; pig 5303, EU dose 0.005%, day 14, 11 min",11.52 ng/mL
same,plasma EU concentration,"[4]; pig 5303, EU dose 0.005%, day 14, 15 min",11.07 ng/mL
same,effect on skin DPD activity,[5],temporary and recoverable inhibition
"CCCCCOC(=O)Nc1nc(=O)n([C@@H]2O[C@H](C)[C@@H](O)[C@H]2O)cc1F [capecitabine, 5′-deoxy-5-fluoro-N-[(pentyloxy)carbonyl]-cytidine]","reported incidence of HFS, all grades",[6],approximately 60%
same,"reported incidence of HFS, high grade",[6],~17%
Cc1cn([C@H]2C[C@H](O)[C@@H](CO)O2)c(=O)[nH]c1=O [thymidine],inhibition of TP activity,[7],about 50%
O=c1ccn([C@@H]2O[C@H](CO)[C@@H](O)[C@H]2O)c(=O)[nH]1 [uridine],inhibition of TP activity,[7],about 50%
